# According to US7741344B2, “Process for preparing purified S-BEL and R-BEL and compositions thereof” (Washington University in St. Louis, priority 2002, dated 2010):
# Legend:
# [1] = biological target: T1, recombinant human iPLA2γ (Homo sapiens, UniProt Q9NP80); details: previous experiments (24, 31); cited from earlier work
# T1 construct: Recombinant full-length iPLA2γ was expressed in Sf9 cells; made in house; host or cells: Sf9 cells (washed membrane fraction, not purified)
# T1 sequence (Q9NP80 1-782): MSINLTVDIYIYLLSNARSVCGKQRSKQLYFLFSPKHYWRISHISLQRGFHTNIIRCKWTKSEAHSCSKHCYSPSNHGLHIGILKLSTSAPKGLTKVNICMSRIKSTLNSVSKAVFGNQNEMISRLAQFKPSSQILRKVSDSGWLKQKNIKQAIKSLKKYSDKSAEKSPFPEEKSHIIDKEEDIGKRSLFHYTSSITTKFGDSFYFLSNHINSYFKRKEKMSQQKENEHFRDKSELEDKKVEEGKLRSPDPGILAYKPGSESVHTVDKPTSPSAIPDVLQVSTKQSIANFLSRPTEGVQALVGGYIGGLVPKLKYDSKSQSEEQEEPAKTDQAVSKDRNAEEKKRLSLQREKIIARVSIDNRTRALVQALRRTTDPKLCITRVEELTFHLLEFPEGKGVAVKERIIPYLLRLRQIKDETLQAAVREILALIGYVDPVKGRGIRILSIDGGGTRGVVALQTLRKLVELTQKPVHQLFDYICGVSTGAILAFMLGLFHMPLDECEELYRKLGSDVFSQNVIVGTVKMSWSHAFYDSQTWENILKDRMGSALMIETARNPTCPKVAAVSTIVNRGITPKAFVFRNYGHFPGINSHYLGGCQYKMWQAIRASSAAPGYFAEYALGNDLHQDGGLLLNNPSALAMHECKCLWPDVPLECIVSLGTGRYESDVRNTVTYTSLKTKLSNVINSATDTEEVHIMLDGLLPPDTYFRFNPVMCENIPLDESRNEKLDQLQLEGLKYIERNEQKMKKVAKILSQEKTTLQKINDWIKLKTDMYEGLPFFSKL
# [2] = test system: iPLA2 vs. cPLA2 and SPLA2 family members; details: (31, 32); cited from earlier work
# [3] = test system: membrane-bound phosphatidate phosphohydrolase (PAP-2); experiment: Membrane-bound phosphatidate phosphohydrolase activity of A-10 cell membrane fraction; assay type: biochemical, rat; details: concentrations up to 200 μM BEL; FIG. 6A
# Protocol: (§1) Measurement of Cytosolic and Membrane-bound Phosphatidate Phosphohydrolase Activities—A-10 cells were grown to confluency, washed twice in ice-cold phosphate-buffered saline, and harvested in lysis buffer (50 mM Tris-HCl, pH 7.4 containing 0.25 M sucrose and 0.2 mM DTT). After brief sonication utilizing a Vibra-Cell VC4O sonicator (5×1 s pulses at 30% power), the lysed cell suspension was centrifuged at 100,000×g for 1 hr to separate cytosolic and membrane fractions. In some tests, A-10 cells were washed and pretreated with BEL or ethanol vehicle (as described above for tests examining [^3H]-AA liberation) before isolation of cell homogenates. […] Reactions were terminated with 900 μL of 5% acetic acid and extracted into chloroform by the method of Bligh and Dyer (38) prior to separating dipaliitoyl glycerol by TLC utilizing chloroform: methanol: water (65:35:2) as the mobile phase prior to quantification by scintillation spectrometry.
# (§2) A-10 cells plated on 100 mm dishes were washed 2× in ice-cold PBS and harvested in lysis buffer (50 mM Tris-HCl, pH 7.4 containing 0.25 M sucrose and 0.2 mM DTT). […] In panel B, intact A-10 cells were washed and pretreated with BEL or ethanol vehicle (as described in FIG. 5) before isolation of the cell homogenate and quantification of phosphatidate phosphohydrolase activity as described above. […]
# [4] = test system: purified recombinant iPLA2β; experiment: Assay of iPLA2β inhibition by BEL (radiolabeled phospholipid substrate); assay type: biochemical; details: FIG. 4A
# Protocol: Recombinant iPLA2 Enzymes—Recombinant iPLA2β was expressed and purified from Sf9 cells as previously described (35).
# Assay of iPLA2β and iPLA2γ Inhibition by BEL—Purified recombinant iPLA2β or Sf9 cell membranes containing recombinant iPLA2γ were incubated with (R) BEL, (S) BEL, racemic BEL, or ethanol vehicle for 3 mm at 22° C. in the presence of 100 mM Tris-HCl (pH 7.0) and 4 mM EGTA (for iPLA2β) or 100 mM Tris-acetate (pH 8.0) and 4 mM EGTA (for iPLA2γ). The concentration of BEL used for each test ranged from 0 to 16 μM. L-α-1-palmitoyl-2-[1^14C]-arachidonyl-phosphatidylcholine (5 μM final concentration) or L-α-1-palmitoyl-2-[1-^14C]-oleoyl-phosphatidylcholine (5 μM final concentration) in ethanol was then added to each sample and incubated at 37° C. for 2 min. Reactions were terminated by extraction of radiolabeled products into butanol, and reactants and products were separated by thin layer chromatography using Whatman LK6D 60 Å Silica Gel plates with petroleum ether/ethyl ether/acetic acid (70:30:1) as the mobile phase. Regions corresponding to the migration of a fatty acid standard visualized by iodine staining were scraped into vials and radioactivity was quantified by scintillation spectrometry.
# Panel A—Purified recombinant iPLA2β (1 μg/ml) in 100 mM Tris-HCl, pH 7.3 containing 1 mM EGTA was preincubated at 22° C. for 3 mm in the presence of the indicated concentrations of (R)-, (S)-, or rac-BEL or ethanol vehicle alone (1% final concentration). Radiolabeled substrate (L-α-1-palmitoyl-2-[1-^14C]-arachidonyl-phosphatidylcholine, 5 μM final concentration) was then added to each reaction and incubated at 37° C. for 2 min. Reactions were terminated by extraction of remaining substrate and products into butanol, separation by TLC, and quantification of released radiolabeled fatty acid by scintillation spectrometry as described in Experimental Procedures.
# [5] = test system: phosphatidate phosphohydrolase in A-10 cells; experiment: Total phosphatidate phosphohydrolase activity in homogenates of intact A-10 cells pretreated with BEL; assay type: cell-based, rat; details: intact A-10 cells exposed to up to 100 μM; FIG. 6B
# Protocol: as §1, §2
# [6] = biological target: T2, α-chymotrypsin (Bos taurus, UniProt P00766); experiment: Inhibition of α-chymotrypsin by BEL; assay type: biochemical; details: 2 μM chymotrypsin, up to 5-fold molar excess of inhibitor, 5 min 22° C., then 1000-fold dilution with 100 mM hydrazine; FIG. 3
# T2 construct: purchased Sigma
# Protocol: Inhibition of α-Chymotrypsin by BEL—The kinetics of α-chymotrrpsin inactivation by (R)-, (S)-, and rac-BEL were performed similar to methods previously described (36). The concentration of α-chymotrypsin (MW=25,000) was determined using an A^1%=20 (1 cm pathlength) at 280 nm (37). Briefly, one milliliter of α-chymotrypsin (2 μM) was incubated with up to a 5-fold molar excess of (R)-,(S)-, or rac-BEL dissolved in acetonitrile or vehicle alone for 5 mm at 22° C. in 0.1 M sodium phosphate buffer, pH 7.2. […] Following incubation at 22° C. for 1 hr, chymotrypsin activity in each diluted sample was measured utilizing a SPECTRAmax GeminiXS microplate spectrofluorometer with N-succinyl-Ala-Ala-Pro-Phe-7-amidomethylcoumarin (50 μM) as substrate for 1 mm at 25° C. Excitation and emission wavelengths were 380 nm and 460 nm, respectively.
# Chymotrypsin (2 μM) in 0.1 M sodium phosphate buffer, pH 7.2 was incubated with the indicated concentrations of racemic, (R)-, or (S)-BEL for 5 mm. This solution was then diluted 1000-fold in 0.1 M sodium phosphate buffer, pH 7.2 containing 100 mM hydrazine and incubated for 1 hr at 22° C. Chymotrypsin proteolytic activity was measured spectrofluorometrically using N-succinyl-Ala-Ala-Pro-Phe-7-amido-4-methylcoumarin (50 μM) as substrate.
Structure (SMILES),IC50 [1],selectivity iPLA2 vs. cPLA2 and SPLA2 family members [2],effect on membrane-bound (PAP-2) phosphatidate phosphohydrolase [3],inhibitory potency on iPLA2β relative to the enantiomers [4],total phosphatidate phosphohydrolase activity in comparison to ethanol-treated controls [5],inhibition of chymotrypsin [6]
"O=C1OC(=CBr)CCC1c1cccc2ccccc12 (racemic) [rac-BEL, Racemic (E)-6-(bromomethylene)-3-(1-naphthalenyl)-2H-tetrahydropyran-2-one]",~3 µM,1000 fold,lack of any effect,intermediate of that of (R)-BEL and (S)-BEL,did not inhibit,
"O=C1O/C(=C/Br)CC[C@@H]1c1cccc2ccccc12 [(R)-BEL, (R)(E)-6-(bromomethylene)-3-(1-naphthalenyl)-2H-tetrahydropyran-2-one]",,,,,,stoichiometrically and irreversibly inhibited
